Experimental data reported in patent publication US20260364078A1, “PURINE NUCLEOSIDE PHOSPHORYLASE INHIBITORS FOR THE TREATMENT OF METABOLIC SYNDROME AND ASSOCIATED CONDITIONS” (METASHAPE PHARMA AG, priority 2022, published 2026).
Converted amounts (≈) assume the structure as drawn. Read-outs that look alike come from different tables or passages of the source.

Legend:
[1] = Drying stability (vacuum, RT/50/70 °C); type: physicochemical
[2] = Physicochemical stability (2-week, open conditions); details: for remaining at 336 h: 2-week; for remaining at 336 h / remaining at 240 h: read-out: Purity; for remaining at 240 h: 10-day
From the text: SHIMADZU LC-20AD was employed to detect the chemical purity HPLC method for purity test

[3] = Approximate solubility of starting material at RT; type: physicochemical; details: RT (~27 °C)
Procedure: The solubility of starting material (E0007-A01-02) was estimated at RT (~27 °C).
Specifically, approximate 2 mg of solid was added into an HPLC glass vial. The solvents below were then added stepwise ([…]) into the vials until the solids were dissolved or a total volume of 1.0 mL was reached.
The solubility data were used to guide the solvent selection in polymorph screening. Approximate solubility of starting material (E0007-A01-02) at RT: […]

[4] = Physicochemical stability (2-week, open conditions)
[5] = Polymorph form conversion / solid-state stability (XRPD, VT-XRPD); type: physicochemical; details: polymorph screening overall
Procedure: To confirm stability and suitability of Ulodesine hemi-glutarate Type A, a polymorph screening was conducted to search for other potential crystal forms and identify the most suitable form to confirm the previous findings.
Using glutarate Type A as starting material, a polymorph screening was conducted under 100 conditions through methods of anti-solvent addition, solid vapor diffusion, liquid vapor diffusion, slow evaporation, polymer-induced crystallization, temperature cycling, slurry at room temperature (RT)/50 °C and slow cooling.
X-ray powder diffraction data at variable temperature was collected at on a Malvern Panalytical Empyrean diffractometer. Flat a few milligrams of sample on a sample holder and compact it by a glass slide with protection of a piece of weighting paper. An X-ray generator of 1800 W was employed at 45 kV and 40 mA and was equipped with an X-ray tube of Cu (Kα), with the Kα2/Kα1 intensity ratio of 0.50 (1.54439 Å/1.5406 Å). Data were collected from 3° to […] (2θ) at a step size of 0.026° (2θ) with time per step of 49.7 s.
Glutarate Type B (E0007-A01-06) was only observed by heating glutarate Type A to 130 °C using X-ray powder diffractometer at variable temperature mode (VT-XRPD).
Based on the characterization results, glutarate Type C was speculated as a channel hydrate (the water molecules of a channel hydrate lie next to other water molecules of adjoining unit cell, forming channels through the crystals).
Type C was re-prepared at 100 mg in triplicate via temperature cycling slurry in anisole/MeOH (1:2, v/v).

[6] = Kinetic solubility (37 °C/24 h); type: physicochemical
[7] = Hygroscopicity by DVS at 25 °C; type: physicochemical
Procedure: To understand the hygroscopicity of glutarate type A, DVS was employed to measure the mass change as a function of relative humidity at 25 °C (FIG. 14).
Dynamic vapour sorption was performed with ADVENTURE series DVS and Intrinsic-1 DVS at 25 °C under nitrogen blow. Approximately 30 milligrams of material were used. Anhydrate was analyzed using methods below: 0% RH to 95% RH to 0% RH at 10% RH (5% RH from 90% RH to 95% RH to 90% RH). After equilibrium at ambient conditions (50% RH), the hydrate sample was analyzed using method below: 1. Ambient relative humidity to 95% RH at 10% RH (5% from 90% RH to 95% RH). 2. 95% RH to 0% RH at 10% RH (5% from 95% RH to 90% RH). 3. 0% RH to 95% RH at 10% RH (5% RH from 90% RH to 95% RH).
The moisture sorption profile was generated at 25 °C using a DVS moisture balance flow system (Model Advantage 1.0) with the following conditions: sample size approximately 10 mg, drying 25 °C for 60 minutes, adsorption range 0% to 95% RH, desorption range 95% to 0% RH, and step interval 5%. The equilibrium criterion was <0.01% weight change in 5 minutes for a maximum of 120 minutes.

Diet induced obese mice = details: cited from earlier work
brown adipocytes = details: via cAMP/protein kinase A signalling pathway; cited from earlier work

## O=c1[nH]cnc2c(CN3C[C@H](CO)[C@@H](O)C3)c[nH]c12 [Glutarate Type A]
[1]; 70 °C
  change in crystallinity on vacuum drying: slight decrease
[1]; overnight, 50 °C
  change in crystallinity on vacuum drying: no change in crystallinity
[1]; overnight, RT
  change in crystallinity on vacuum drying: no change in crystallinity
[2]; 25 °C/60% RH
  remaining at 336 h: 97.8%
  remaining at 240 h: 97.7%
[2]; 40 °C/75% RH
  remaining at 336 h: 97.7%
  remaining at 240 h: 97.8%
[2]; 60 °C
  remaining at 336 h: 97.3%
  remaining at 240 h: 97.6%
[2]; initial
  Initial purity: 97.9 area %
[3]; H2O
  solubility: > 36000 µg/mL
[3]; organic solvent or mixture, 1,4-Dioxane
  solubility: < 2000 µg/mL
[3]; organic solvent or mixture, 2-MeTHF
  solubility: < 1900 µg/mL
[3]; organic solvent or mixture, ACN
  solubility: < 1900 µg/mL
[3]; organic solvent or mixture, Acetone/H2O (9:1)
  solubility: < 1900 µg/mL
[3]; organic solvent or mixture, Acetone
  solubility: < 2100 µg/mL
[3]; organic solvent or mixture, CPME
  solubility: < 1900 µg/mL
[3]; organic solvent or mixture, DCM/MeOH (1:1)
  solubility: < 1900 µg/mL
[3]; organic solvent or mixture, DCM
  solubility: < 1800 µg/mL
[3]; organic solvent or mixture, DMAc
  solubility: 2000 to 6500 µg/mL (≈ 7.57 to 24.6 mM)
[3]; organic solvent or mixture, DMF
  solubility: 2300 to 7600 µg/mL (≈ 8.7 to 28.8 mM)
[3]; organic solvent or mixture, DMSO
  solubility: > 39600 µg/mL
[3]; organic solvent or mixture, EtOAc
  solubility: < 2100 µg/mL
[3]; organic solvent or mixture, EtOH/H2O (2:1)
  solubility: 22600 to 45200 µg/mL (≈ 85.5 to 171 mM)
[3]; organic solvent or mixture, EtOH/H2O (4:1)
  solubility: 2100 to 6900 µg/mL (≈ 7.95 to 26.1 mM)
[3]; organic solvent or mixture, EtOH/H2O (9:1)
  solubility: < 2000 µg/mL
[3]; organic solvent or mixture, EtOH
  solubility: < 2100 µg/mL
[3]; organic solvent or mixture, IPA
  solubility: < 1800 µg/mL
[3]; organic solvent or mixture, IPAc
  solubility: < 2000 µg/mL
[3]; organic solvent or mixture, MEK
  solubility: < 1900 µg/mL
[3]; organic solvent or mixture, MIBK
  solubility: < 1800 µg/mL
[3]; organic solvent or mixture, MTBE
  solubility: < 2000 µg/mL
[3]; organic solvent or mixture, MeOH
  solubility: 1900 to 6500 µg/mL (≈ 7.19 to 24.6 mM)
[3]; organic solvent or mixture, NMP
  solubility: 1900 to 6300 µg/mL (≈ 7.19 to 23.8 mM)
[3]; organic solvent or mixture, THF/H2O (9:1)
  solubility: < 2000 µg/mL
[3]; organic solvent or mixture, THF
  solubility: < 2000 µg/mL
[3]; organic solvent or mixture, Toluene
  solubility: < 1900 µg/mL
[3]; organic solvent or mixture, n-Heptane
  solubility: < 2000 µg/mL
[4]; 2-week, 25 °C/60% RH
  Form change: No
[4]; 2-week, 40 °C/75% RH
  Form change: No
[4]; 2-week, 60 °C
  Form change: No
[4]; 10-day, 25 °C/60% RH
  Form change: No
[4]; 10-day, 40 °C/75% RH
  Form change: No
[4]; 10-day, 60 °C
  Form change: No
[5]
  solid-state properties and stability: good solid-state properties and stability
[6]; FaSSIF
  solubility kinetic at 24 h: > 16800 µg/mL
[6]; FeSSIF
  solubility kinetic at 24 h: > 16800 µg/mL
[6]; SGF
  solubility kinetic at 24 h: > 16800 µg/mL
[6]; water
  solubility kinetic at 24 h: > 16800 µg/mL
[7]; 25 °C/80% RH
  water uptake: 1.1%
[7]; 25 °C/80% RH, in words
  hygroscopicity: slightly hygroscopic
[7]; 25 °C/95% RH
  water uptake: 10.4%
[7]; XRPD after DVS
  form change after DVS: no form change

## OC[C@H]1O[C@@H](n2cnc3c(O)ncnc32)[C@H](O)[C@@H]1O [inosine]
Diet induced obese mice; diet induced obese mice, daily for 26 days, vs vehicle
  weight: significant reduction in weight
Diet induced obese mice; mice
  BAT dependent energy expenditure: increased BAT dependent energy expenditure
  browning of white adipose tissue: induced browning of white adipose tissue
Brown adipocytes
  energy expenditure in brown adipocytes: stimulates energy expenditure
